Test results taken from patent US10710987B2, “Hydrochloride salt form for EZH2 inhibition” (Epizyme, Inc., priority 2013, dated 2020).

Assay: Dynamic vapor sorption (DVS), hygroscopicity
Type: physicochemical
Conditions: for hygroscopicity (DVS, in words): FIGS. 5 and 6
Experimental: Dynamic Vapor Sorption DVS was measured on a VTI Model SGA-100 system. Measurement method: The relative humidity (RH) was changed in a controlled fashion, in 5% steps from 5.0% to 95.0% then back to 5.0% using the gravimetric vapor sorption system, and the weight percentage change (wt %) of the sample at each stage was measured.

hygroscopicity (DVS, in words)	weight gain (DVS) (at 75% relative humidity (RH) at 25° C., FIG. 6)	weight increase (DVS) (upon increasing relative humidity from 5.0% to 95.0%, FIG. 5)	SMILES
some hygroscopicity	4-6%		CCN(c1cc(-c2ccc(CN3CCOCC3)cc2)cc(C(=O)NCc2c(C)cc(C)[nH]c2=O)c1C)C1CCOCC1 [Polymorph A, 4-((3′-(((4,6-Dimethyl-2-oxo-1,2-dihydropyridin-3-yl)methyl)carbamoyl)-5′-(ethyl(tetrahydro-2H-pyran-4-yl)amino)-4′-methyl-[1,1′-biphenyl]-4-yl)methyl)morpholin-4-ium chloride]
non-hygroscopic		less than 1.5%	CCN(c1cc(-c2ccc(CN3CCOCC3)cc2)cc(C(=O)NCc2c(C)cc(C)[nH]c2=O)c1C)C1CCOCC1.Cl [Polymorph C, 4-((3′-(((4,6-Dimethyl-2-oxo-1,2-dihydropyridin-3-yl)methyl)carbamoyl)-5′-(ethyl(tetrahydro-2H-pyran-4-yl)amino)-4′-methyl-[1,1-biphenyl]-4-yl)methyl)morpholin-4-ium chloride]
